Data from US9856225B2, “Substituted phenazines as antimicrobial agents” (University of Florida Research Foundation, Incorporated, priority 2013, dated 2018).
Values joined by “and” are separate entries in the source; they are usually repeats but may differ in a detail not shown here. Equal values may be shown once. Read-outs that look alike come from different tables or passages of the source.

Experiments:
Type in all cases: cell-based
[1] = tested on: Pseudomonas aeruginosa (PAO1); experiment: MIC broth microdilution (CLSI), Luria Broth
Method: (§1) Antibiotic Susceptibility Tests (MIC Assay Protocol). The minimum inhibitory concentration (MIC) for each compound described herein was determined by the broth microdilution method as recommended by the Clinical and Laboratory Standards Institute (CLSI) (Clinical and Laboratory Standards Institute. 2009. Methods for dilution antimicrobial susceptibility tests for bacteria that grow aerobically; approved standard, eighth edition (M7-A8)). In a 96-well plate, eleven two-fold serial dilutions of each compound were made in a final volume of 100 μL Luria Broth (one column served as a blank; see the MIC assay described herein). Each well was inoculated with 10^5 bacterial cells at the initial time of incubation, prepared from a fresh log phase culture (OD600 of 0.5). […] The concentration range tested for each compound during this study was 0.10 to 100 μM. DMSO served as the vehicle and negative control in each microdilution MIC assay. DMSO was serially diluted at the same concentration as the compounds with a top concentration of 1% v/v. Bacterial strains used: Staphylococcus aureus (ATCC 25923), Staphylococcus epidermidis (ATCC 12228) and Pseudomonas aeruginosa (PAO1). Kanamycin was used as a positive control against Staphylococcus aureus and Staphylococcus epidermidis.

[2] = tested on: Staphylococcus aureus (ATCC 25923); experiment: MIC broth microdilution (CLSI), Luria Broth; conditions: Staphylococcus aureus
Method: as §1

[3] = tested on: Staphylococcus epidermidis (ATCC 12228); experiment: MIC broth microdilution (CLSI), Luria Broth
Method: as §1

[4] = tested on: Staphylococcus aureus (ATCC 25923) biofilm; experiment: Biofilm inhibition, crystal violet staining; set-up: MIC/IC50 Biofilm: unit not given here; conditions: S. aureus ATCC 25923; for Phenotype: planktonic growth vs biofilm formation; for IC50: Staphylococcus aureus, ATCC25923, single replicate screen, read-out: Biofilm Inhibition IC50; for MIC/IC50 Biofilm: ratio of MIC to IC50 of biofilm inhibition
Method: Biofilm Inhibition Protocol for S. aureus (ATCC 25923). A serial two-fold dilution of 2× bromophenazine small molecule concentration was made in 100 μL tryptic soy broth (TSB) medium with 0.5% glucose were delivered into 0.1% gelatin (Millipore) coated 96-well tissue culture plates. […] To each well, 100 μL of TSB with 0.5% glucose containing 2×10^6 CFU/mL Staphylococcus aureus cells, prepared from fresh culture (OD600 of 0.8), was added. The plates were incubated at 37° C. for 24 hours. The wells were gently rinsed by submerging the entire plates in a tub of cold, running tap water. The wells were then fixed with 200 μL methanol for 15 minutes. After the plates were air dried, the biofilms were stained with 100 μL of 1% crystal violet for 10 minutes. The plates were again rinsed with running water. After drying in air, quantitative assessment of biofilm formation was obtained by extracting the crystal violet associated with the remaining biofilm with 100 μL per well of the following bleaching solution (methanol:glacial acetic acid:water (v/v/v)=4:1:5). This bleaching solution dissolved the bound crystal violet and produced a violet-colored solution in each well. The intensity of coloration was determined by measuring the absorbance at 540 nm.

[5] = tested on: Acinetobacter baumannii (ATCC 19606) biofilm; experiment: Biofilm inhibition, Mueller-Hinton broth, crystal violet; conditions: Acinetobacter baumannii, ATCC19606; A. baumannii ATCC 19606; 100 μM; read-out: % Biofilm Inhibition at 100 μM
Method: (§2) Biofilm Inhibition Protocol for A. baumannii (ATCC 19606): In a 96-well plate, ten two-fold serial dilutions of each compound tested were made from the highest concentration tested (100 μM) in a final volume of 100 μL in Mueller-Hinton broth (one column served as a blank). Each well was inoculated with ˜7×10^6 colony forming units per milliliter (corresponding to an OD600 of 0.01 prepared directly from an overnight culture). A lid was placed on the 96-well plate which was wrapped in suran wrap, placed in a humidifying chamber and incubated under static conditions at 37° C. for 24 hours. Following incubation, the media and planktonic bacteria were then removed from 96-well plates and the wells were then washed with water. The bacterial biofilms within the microtiter wells were stained with 200 μL of an aqueous 0.1% crystal violet solution that was allowed to stand for 10-20 minutes. The crystal violet stain was then removed, the wells were rinsed with water and dried. The crystal violet stain that remained on the inside of the wells (i.e., stained bacterial biofilm) on the inside of the wells was solubilized by the addition of 200 μL ethanol and absorbance was read at OD540 using a spectrophotometer. NOTE: The concentration range tested for each compound was 0.2-100 μM. Single data points for all compounds and DMSO controls were tested in two replicate rows in 96-well plates and corresponding absorbance readings were averaged for the quantification of planktonic growth and biofilm formation. Reported percent biofilm inhibition was determined by the comparison of compound treated wells (the average of the two replicate wells) versus vehicle control wells without compound following background subtraction (i.e., an empty, untreated well) and reported from 2 to 4 independent overnight cultures. DMSO was serially diluted at the same concentration as test compounds with a top concentration of 1% v/v.
(§3) The bromophenazines were also evaluated against the Gram-negative bacterium Acinetobacter baumannii in order to identify biofilm modulating small molecules against this emerging pathogen. Acinetobacter baumannii is notorious for its ability to persist as bacterial biofilms on hospital surfaces, giving rise to many multidrug-resistant nosocomial infections. Clinical isolates of A. baumannii have been identified that are resistant to every class of antibiotic clinically used. The bromophenazines were evaluated against Acinetobacter baumannii ATCC 19606 in biofilm inhibition assays. Bromophenazines were allowed to incubate in 96-well plates with Acinetobacter baumannii (˜7×10^6 CFUmL^−1 by adjusting an overnight culture to an OD600˜0.01) for 24 hours at 37° C. using Mueller-Hinton broth followed by spectrophometer readings of each plate to evaluate planktonic growth (OD600) and biofilm formation (OD540 after crystal violet stain of biofilms inside microtiter wells). […] This biofilm inhibition with activation of planktonic growth activity was dose-dependent with bromophenazine 17a (see FIG. 20).

[6] = tested on: Acinetobacter baumannii (ATCC 19606); experiment: Planktonic growth (OD600) in biofilm inhibition assay; conditions: for inhibition of growth at 100 µM: Acinetobacter baumannii, ATCC19606, 24 h, A. baumannii ATCC 19606, * = no growth inhibition at 200 μM, read-out: % Growth Inhibition at 100 μM
Method: as §2, with “Each” for “Biofilm Inhibition Protocol for A. baumannii (ATCC 19606): In a 96-well plate, ten two-fold serial dilutions of each compound tested were made from the highest concentration tested (100 μM) in a final volume of 100 μL in Mueller-Hinton broth (one column served as a blank). Each”, “NOTE: The concentration range tested for each compound was 0.2-100 μM.” left out
as §3

[7] = Table 1, PAO1, read-out: Pseudomonas aeruginosa MIC
[8] = ATCC25923, Table 1, ATCC 25923, range tested 0.10 to 100 μM, read-out: Staphylococcus aureus MIC
[9] = ATCC25923, Table 1, ATCC 25923, read-out: Staphylococcus aureus MIC
[10] = ATCC12228, Table 1, ATCC 12228, read-out: Staphylococcus epidermidis MIC
[11] = ATCC25923, Table 2, S. aureus ATCC 25923, Luria Broth, read-out: MIC

| MIC [1, 7] [µM] | MIC [2, 8] [µM] | MIC [2, 9] [µg/mL] | MIC [3, 10] | Structure (SMILES) | also measured |
| --- | --- | --- | --- | --- | --- |
| – | – | – | – | Oc1cccc2nc3ccccc3nc12 [Compound 2, 1-Hydroxyphenazine, reference compound] | MIC ([1]; PAO1, read-out: Pseudomonas aeruginosa MIC): > 100 µM; MIC ([2]; ATCC25923, read-out: Staphylococcus aureus MIC): > 100 µM and > 19.7 µg/mL; MIC ([3]; ATCC12228, read-out: Staphylococcus epidermidis MIC): > 100 µM and > 19.7 µg/mL |
| > 100 | > 100 | > 25.5 | > 100 µM and > 25.5 µg/mL | COc1ccc2nc3c(C(=O)O)cccc3nc2c1 [Compound 8, 7-Methoxyphenazine-1-carboxylic acid] | – |
| > 100 | 100 | 30.3 | 100 µM and 30.3 µg/mL | O=C(O)c1cccc2nc3cc(Br)ccc3nc12 [Compound 9, 7-Bromophenazine-1-carboxylic acid] | – |
| > 100 | 50 | 13 | 50 µM and 13 µg/mL | O=C(O)c1cccc2nc3cccc(Cl)c3nc12 [Compound 10, 9-Chlorophenazine-1-carboxylic acid] | – |
| > 100 | > 100 | > 31.5 | > 100 µM and > 31.5 µg/mL | COc1cc2nc3c(C(=O)O)cccc3nc2c(OC)c1OC [Compound 12, 6,7,8-Trimethoxyphenazine-1-carboxylic acid] | – |
| > 100 | > 100 | > 25.3 | > 100 µM and > 25.3 µg/mL | CCc1ccc2nc3c(C(=O)O)cccc3nc2c1 [Compound 13, 7-Ethylphenazine-1-carboxylic acid] | – |
| > 100 | > 100 | > 27.4 | – | Nc1cccc2nc3cc(Br)ccc3nc12 [Compound 14, 7-Bromophenazin-1-amine] | – |
| > 100 | > 100 | > 30.2 | – | NC(=O)c1cccc2nc3cc(Br)ccc3nc12 [Compound 15, 7-Bromophenazine-1-carboxamide] | – |
| > 100 | > 100 | > 43.2 | – | Nc1c(Br)cc(Br)c2nc3cc(Br)ccc3nc12 [Compound 16, 2,4,7-Tribromophenazin-1-amine] | – |
| > 100 | > 100 | > 28.9 | – | COc1ccc(Br)c2nc3ccccc3nc12 [Compound 19, 1-Bromo-4-methoxyphenazine] | – |
| > 100 | > 100 | > 27.5 | – | Oc1ccc(Br)c2nc3ccccc3nc12 [Compound 20, 4-Bromophenazin-1-ol] | – |
| – | 1.56 | 0.66 | 1.56 µM and 0.66 µg/mL | CC(C)C(=O)Oc1c(Br)cc(Br)c2nc3ccccc3nc12 [Compound 22, 2,4-Dibromophenazin-1-yl isobutyrate] | MIC [2, 11]: 1.56 µM; Phenotype [4]: antibacterial; IC50 [4]: 0.99 µM; MIC/IC50 Biofilm [4]: 1.6; inhibition at 100 µM [5]: 26 ± 12%; inhibition of growth at 100 µM ([6]; 100 μM): -13 ± 5% |
| – | 3.13 | 1.68 | 3.13 µM and 1.68 µg/mL | O=C(Oc1c(Br)cc(Br)c2nc3ccccc3nc12)c1cccc(Br)c1 [Compound 25, 2,4-Dibromophenazin-1-yl 3-bromobenzoate] | MIC [2, 11]: 3.13 µM; Phenotype [4]: antibacterial; IC50 [4]: 0.93 µM; MIC/IC50 Biofilm [4]: 3.4; inhibition at 100 µM [5]: 49 ± 6%; increase in planktonic growth ([6]; 100 μM, OD600): ~15%; planktonic growth inhibition at 200 μM ([6]; 200 μM): did not inhibit planktonic growth; inhibition of growth at 100 µM ([6]; 100 μM): -18 ± 4% |

| Structure (SMILES) | MIC [1, 7] [µM] | MIC [2, 8] [µM] | MIC [2, 9] [µg/mL] | MIC [3, 10] | also measured |
| --- | --- | --- | --- | --- | --- |
| O=C(O)c1cccc2nc3ccccc3nc12 [Compound 3, Phenazine-1-carboxylic acid, reference compound] | > 100 | > 100 | > 22.5 | > 100 µM and > 22.5 µg/mL | – |
| NC(=O)c1cccc2nc3ccccc3nc12 [Compound 4, Phenazine-1-carboxamide, reference compound] | > 100 | > 100 | > 22.4 | > 100 µM and > 22.4 µg/mL | – |
| Oc1c(Br)ccc2nc3ccccc3nc12 [Compound 5, 2-Bromophenazin-1-ol, reference compound] | > 100 | 6.25 | 1.72 | 6.25 µM and 1.72 µg/mL | – |
| Nc1cccc2nc3ccccc3nc12 [Compound 6, Phenazin-1-amine] | > 100 | > 100 | > 19.6 | > 100 µM and > 19.6 µg/mL | – |
| O=C(O)c1cccc2c1nc1ccccc1[n+]2[O-] [Compound 7, 1-Carboxyphenazine 5-oxide] | > 100 | > 100 | > 24.1 | > 100 µM and > 24.1 µg/mL | – |
| Nc1c(Br)cc(Br)c2nc3ccccc3nc12 [Compound 17, 2,4-Dibromophenazin-1-amine] | > 100 | > 100 | > 35.4 | – | – |
